A melting point compilation (Tetko et al.)

melting point	Structure (SMILES)
-23 °C	C=C(Cl)c1ccccc1
300 °C	Cn1cnc(N)c2ncnc1-2
150 °C	O=C(C=Cc1ccccc1O)c1cccc(C(=O)C=Cc2ccccc2O)c1
110 °C	CCOC(=O)/C(C#N)=C(/c1ccc([N+](=O)[O-])cc1)C(C(=O)OCC)C(=O)OCC
32 °C	OCc1ccc(Br)cc1F
84 °C	CCOC(=O)C1C(c2ccc(F)cc2)C(C(=O)OCC)C(O)(C(F)(F)F)NC1(O)C(F)(F)F (configuration not stated)
95 to 96 °C	O=Cc1ccc(OC2CCOCC2)cc1
137 to 139 °C	N#Cc1c(Cl)cccc1Oc1ccc(S(=O)(=O)Cl)cc1
95 °C	Clc1ncccc1I
86 to 88 °C	NNC(=O)c1cc(OCC(F)(F)F)ccc1OCC(F)(F)F
84 to 86 °C	Cn1ccc2cc(C=O)ccc21
32 °C	CCCCCCCCCCC(O)CC (configuration not stated)
178 °C	COC(=O)c1c(C(=O)OC)c(-c2ccccc2)c2c(Cl)nc(Cl)cc2c1Sc1ccccc1
76 °C	COC(=O)c1cccoc1=O
57 to 58 °C	COc1ccc(C(=O)CC(=O)C(F)(F)F)cc1
-136 °C	C=C=CC
29.5 °C	Cc1ccc(-c2ccccc2)cc1C
135 °C	Nc1ccc(-c2ccccc2)cn1
106 to 108 °C	CC(C)(C)OC(=O)NCC1CCNCC1
117 °C	COc1cc(CO)cc(Cl)c1O
171 °C	NC(=O)c1cc(Cl)ccc1N
-70 °C	CN(C)CCN
284 °C	Nc1ccc(O)c(C(=O)O)c1
58 to 59.5 °C	Fc1c(Cl)c(F)c(Br)c(F)c1Cl
171 °C	CN1CCC(=O)NC1=O

The remaining lines, values behind:

Structure (SMILES)	melting point
Cc1ccc(-c2onc(C(=O)c3ccc([N+](=O)[O-])cc3)c2S(=O)(=O)c2ccccc2)cc1	225 to 227 °C
c1ccc(C2=C(c3ccccc3)C(c3ccccc3)C(c3ccccc3)=C2c2ccccc2)cc1	254 to 257 °C
CC1(C)C2CCC1(C)C(O)C2C(c1ccccc1)c1ccccc1 (configuration not stated)	171 °C
CC(C)(C)OC(=O)N1CCC(c2nc(CO)cs2)CC1	97 to 101 °C
C=CC(=O)OCCN(C)C	-60 °C
COc1ccc2oc(CCC(C)=O)c(-c3ccc(C)o3)c2c1	36 °C
N#Cc1cc(I)c(O)c(I)c1	212 °C
Clc1cc(Cl)c2c(c1)oc1c(Cl)cc(Cl)cc12	177 °C
CCC(CO)(CO)COCC(CC)(CO)CO	110 °C
Cn1c(/C(C#N)=N/Nc2ccc(C(=O)O)cc2)nc2ccccc21	200 °C
O=C(O)c1cc([N+](=O)[O-])c(O)c([N+](=O)[O-])c1	250 °C
C=COC(C)=O	-93.2 °C
FCC(F)(F)F	-101 °C
O=P(O)(O)CCN(CP(c1ccccc1)c1ccccc1)CP(c1ccccc1)c1ccccc1	146 to 148 °C
CC(CO)c1c(O)c(O)c2c(c1O)C(=O)C(O)=C1C(C)(C)CCCC12C (configuration not stated)	237 °C
Cc1ccc2c(C)cccc2c1	-16.9 °C
CCOOCC	-70 °C
CCOC(=O)c1cn[nH]c1NC(=O)Nc1ccccc1	242 to 245 °C
O=C1CCc2cccc3c2N1CC3	112 °C
NCc1ccc2occc2c1	32 to 34 °C
CCCCCCCSCCCCCCC	70 °C
Cc1occc1C(=O)Nc1ccccc1	110 °C
COc1cc2c(cc1OC)C1CC(=O)C(CC(C)C)CN1CC2 (configuration not stated)	128 °C
CCn1cc(C(=O)O)c(=O)c2cc(F)c(N3CCNCC3)nc21	222 °C
O=C(O)C[C@H](C(=O)O)c1ccccc1	173 to 176 °C
Cc1cc(CO)c(O)c(CO)c1	129 °C
CCC1(c2ccccc2)C(=O)NC(=O)N(C)C1=O (configuration not stated)	176 °C
